Measurements published in patent publication US11312727B1, “Macrocyclic flu endonuclease inhibitors” (Janssen BioPharma, Inc., priority 2018, dated 2022).

Columns and labels:
[1] = test system: Influenza strain A549 A/WSN/33 (H1N1); test: microbe, parasite or virus in culture; type: cell-based; settings: Influenza A virus, A549, 20 h, A549 cells, influenza A/WSN/33 (H1N1), 20 hours incubation; read-out: A549_A(H1N1) EC50
[2] = in vitro; settings: human, CC50, uninfected A549 cells, CellTiter-Glo

Compound | EC50 [1] [nM] | CC50 [2] [nM]
O=C1c2c(O)c(=O)ccn2N2CN1CC/C=C\COc1cccc3c1[C@H]2c1ccccc1CC3 (single isomer, unassigned) [Compound 28A] | 5950 | > 20000
C[C@@H]1/C=C/COc2c(F)cccc2[C@@H](c2ccccc2)N2CN1C(=O)c1c(O)c(=O)ccn12 (single isomer, unassigned) [Compound 141AA, (9*R,18*R,E)-4-fluoro-12-hydroxy-9-methyl-18-phenyl-6,9-dihydro-18H-10,17-methanobenzo[b]pyrido[1,2-f][1]oxa[5,6,9]triazacyclotridecine-11,13-dione] | 1.5 | > 50
O=C1c2c(O)c(=O)ccn2N2CN1C/C=C\COc1c(F)cccc1[C@@H]2c1cccc(F)n1 (single isomer, unassigned) [Compound 104A, (18*R,*Z)-4-fluoro-18-(6-fluoropyridin-2-yl)-12-hydroxy-6,9-dihydro-18H-10,17-methanobenzo[b]pyrido[1,2-f][1]oxa[5,6,9]triazacyclotridecine-11,13-dione] | 10.7 | > 200
O=C1c2c(O)c(=O)ccn2N2CN1C/C=C\CCc1cnccc1[C@@H]2c1ccccc1 (single isomer, unassigned) [Compound 56B, (18*S,*Z)-12-hydroxy-18-phenyl-5,6,9,18-tetrahydro-10,17-methanodipyrido[1,2-b:3′,4′-k][1,2,5]triazacyclotridecine-11,13-dione] | 161 | > 2000
Cc1ccccc1[C@@H]1c2ccc(F)c(F)c2OC/C=C\CN2CN1n1ccc(=O)c(O)c1C2=O (single isomer, unassigned) [Compound 155A, (18*R,*Z)-3,4-difluoro-12-hydroxy-18-(o-tolyl)-6,9-dihydro-18H-10,17-methanobenzo[b]pyrido[1,2-f][1]oxa[5,6,9]triazacyclotridecine-11,13-dione] | 1.2 | > 100
O=C1c2c(O)c(=O)ccn2N2CN1C/C=C/CCc1ccccc1[C@H]2c1cccc(F)n1 (single isomer, unassigned) [Compound 78B, (16*S,E)-16-(6-fluoropyridin-2-yl)-4-hydroxy-7,10,11,16-tetrahydro-6,17-methanobenzo[k]pyrido[1,2-b][1,2,5]triazacyclotridecine-3,5-dione] | 6430 | 61600
O=C1c2c(O)c(=O)ccn2N2CN1C/C=C\COc1ccccc1[C@@H]2c1cccnc1 (single isomer, unassigned) [Compound 26B, (18*S,*Z)-12-hydroxy-18-(pyridin-3-yl)-6,9-dihydro-18H-10,17-methanobenzo[b]pyrido[1,2-f][1]oxa[5,6,9]triazacyclotridecine-11,13-dione] | 40100 | > 4000
O=C1c2c(O)c(=O)ccn2N2CN1CCC/C=C\Cc1ccccc1C2c1ccccn1 (stereo not shown) [Compound 15, (Z)-15-hydroxy-2-(pyridin-2-yl)-12,13,14,16-tetrahydro-11H-1(1,3)-pyrido[2,1-f][1,2,4]triazina-3(1,2)-benzenacyclononaphan-5-ene-14,16-dione] | 635 | > 20000
O=C1c2c(O)c(=O)ccn2N2CN1C1(/C=C/COc3c(Cl)cccc3[C@H]2c2ccccc2)CC1 (single isomer, unassigned) [Compound 96A, (18′*R,E)-4′-chloro-12′-hydroxy-18′-phenyl-6′H,18′H-spiro[cyclopropane-1,9′-[10,17]methanobenzo[b]pyrido[1,2-f][1]oxa[5,6,9]triazacyclotridecine]-11′,13′-dione] | 1.9 | > 200
O=C1c2c(O)c(=O)ccn2N2CN1CCCCCc1ccccc1[C@H]2c1ccccn1 (single isomer, unassigned) [Compound 40B, (17*S)-4-hydroxy-16-(pyridin-2-yl)-7,8,9,10,11,16-hexahydro-6,17-methanobenzo[k]pyrido[1,2-b][1,2,5]triazacyclotridecine-3,5-dione] | > 1000 | > 2000
O=C1c2c(O)c(=O)ccn2N2CN1CC/C=C/COc1cc(F)c(F)c3c1[C@H]2c1ccccc1SC3 (single isomer, unassigned) [Compound 88D, (23b*S, E)-16,17-difluoro-6-hydroxy-10,13,18,23b-tetrahydro-9H-1,8-methano[1]benzothiepino[5,4,3-lm]pyrido[2,1-i][1,7,10,11]benzoxatriazacyclotetradecine-5,7-dione] | 1 | > 100
O=C1c2c(O)c(=O)ccn2N2CN1[C@H](C1CC1)/C=C/COc1c(ccc(F)c1F)[C@@H]2c1ccccc1 (single isomer, unassigned) [Compound 152AB, (9*R,18*S,*E)-9-cyclopropyl-3,4-difluoro-12-hydroxy-18-phenyl-6,9-dihydro-18H-10,17-methanobenzo[b]pyrido[1,2-f][1]oxa[5,6,9]triazacyclotridecine-11,13-dione] | > 50 | > 100
O=C1c2c(O)c(=O)ccn2N2CN1C/C=C\COc1c(F)cccc1[C@H]2c1cccc(F)n1 (single isomer, unassigned) [Compound 104B, (18*S,*Z)-4-fluoro-18-(6-fluoropyridin-2-yl)-12-hydroxy-6,9-dihydro-18H-10,17-methanobenzo[b]pyrido[1,2-f][1]oxa[5,6,9]triazacyclotridecine-11,13-dione] | > 100 | > 200
CC[C@@H]1/C=C\COc2cc(F)c(F)c3c2[C@@H](c2ccccc2SC3)N2CN1C(=O)c1c(O)c(=O)ccn12 (single isomer, unassigned) [Compound 126BB, (13*R,21a*S,Z)-13-ethyl-24,25-difluoro-16-hydroxy-6,10,13,21a-tetrahydro-7,8-(epiprop[1]en[1]yl[3]ylidene)-14,21-methanobenzo[6,7]thiepino[4,5-c]pyrido[1,2-f][1]oxa[5,6,9]triazacyclotridecine-15,17-dione] | 1 | > 200
O=C1c2c(O)c(=O)ccn2N2CN1C/C=C\COc1cccc3c1[C@@H]2c1ccccc1CC3 (single isomer, unassigned) [Compound 33B, (19b*S,Z)-4-hydroxy-7,10,15,19b-tetrahydro-14H-13,12-(epiprop[1]en[1]yl[3]ylidene)-6,20-methanobenzo[3,4]cyclohepta[1,2-c]pyrido[1,2-f][1]oxa[5,6,9]triazacyclotridecine-3,5-dione] | 15 | > 2000
O=C1c2c(O)c(=O)ccn2N2CN1C/C=C\CCc1ccccc1[C@@H]2c1ccccc1 (single isomer, unassigned) [Compound 21B, (17*S,*Z)-4-hydroxy-16-phenyl-7,10,11,16-tetrahydro-6,17-methanobenzo[k]pyrido[1,2-b][1,2,5]triazacyclotridecine-3,5-dione] | 815 | > 1000
O=C1c2c(O)c(=O)ccn2N2CN1C/C=C\COc1ccc(Cl)cc1[C@@H]2c1ccccc1 (single isomer, unassigned) [Compound 51B] | 10 | > 2000
O=C1c2c(O)c(=O)ccn2N2CN1C1(/C=C/COc3cc(F)c(F)c4c3[C@H]2c2ccccc2SC4)CCC1 (single isomer, unassigned) [Compound 159B, (17a′*S,*E)-24′,25′-difluoro-12′-hydroxy-2′,17a′-dihydro-6′H-spiro[cyclobutane-1,9′-[3,4](epiprop[1]en[1]yl[3]ylidene)[10,17]methanobenzo[6,7]thiepino[4,5-c]pyrido[1,2-f][1]oxa[5,6,9]triazacyclotridecine]-11′,13′-dione] | 0.19 | > 100
CC(C)c1ccccc1[C@H]1c2ccc(F)c(F)c2OC/C=C\CN2CN1n1ccc(=O)c(O)c1C2=O (single isomer, unassigned) [Compound 158A, (18*S,*Z)-3,4-difluoro-12-hydroxy-18-(2-isopropylphenyl)-6,9-dihydro-18H-10,17-methanobenzo[b]pyrido[1,2-f][1]oxa[5,6,9]triazacyclotridecine-11,13-dione] | > 50 | > 100
C[C@H]1/C=C\COc2cc(F)c(F)c3c2C(c2ccccc2SC3)N2CN1C(=O)c1c(O)c(=O)ccn12 (single isomer, unassigned) [Compound 162D, (13*S,21a*S,*Z)-24,25-difluoro-16-hydroxy-13-methyl-6,10,13,21a-tetrahydro-7,8-(epiprop[1]en[1]yl[3]ylidene)-14,21-methanobenzo[6,7]thiepino[4,5-c]pyrido[1,2-f][1]oxa[5,6,9]triazacyclotridecine-15,17-dione] | 0.51 | > 100
O=C1c2c(O)c(=O)ccn2N2CN1C1(/C=C/COc3c(ccc(Cl)c3Cl)[C@H]2c2ccccc2)CC1 (single isomer, unassigned) [Compound 113A, (18′*R,*E)-3′,4′-dichloro-12′-hydroxy-18′-phenyl-6′H,18′H-spiro[cyclopropane-1,9′-[10,17]methanobenzo[b]pyrido[1,2-f][1]oxa[5,6,9]triazacyclotridecine]-11′,13′-dione] | > 100 | > 200
O=C1c2c(O)c(=O)ccn2N2CN1C/C=C\COc1cc(F)c(F)cc1[C@H]2c1ccccn1 (single isomer, unassigned) [Compound 70B, (18*S,*Z)-2,3-difluoro-12-hydroxy-18-(pyridin-2-yl)-6,9-dihydro-18H-10,17-methanobenzo[b]pyrido[1,2-f][1]oxa[5,6,9]triazacyclotridecine-11,13-dione] | 32 | > 200
O=C1c2c(O)c(=O)ccn2N2CN1C1(/C=C/COc3c(ccc(F)c3F)[C@H]2c2ccccc2)CC1 [Compound 102A, (18′R,E)-3′,4′-difluoro-12′-hydroxy-18′-phenyl-6′H,18′H-spiro[cyclopropane-1,9′-[10,17]methanobenzo[b]pyrido[1,2-f][1]oxa[5,6,9]triazacyclotridecine]-11′,13′-dione] | 0.9 | > 100
